This assay concerns formation of C3-C5 alcohols. Nature of the assay: Inhibition of C3-C5 alcohols formation in alcohol fermentation by yeast. In kind it is cell-based. Particulars: for effect on formation of C3-C5 alcohols: present in the substrate in addition to valine, leucine and isoleucine; for inhibition constant: formation of C3-C5 alcohols in alcohol fermentation. Here is the method:
Formation of C3-C5 alcohols is a result of active functioning of the process of deamination of amino acids in the yeast cells with formation of free ammonia. […] The yield of C3-C5 alcohols reached 3.1% of ethanol when pure valine, isoleucine, and leucine were the sole source of nitrogen nutrition of the yeast in the inventive fermentation process. Moreover, the maximum formation of C3-C5 alcohols in the inventive process of alcohol fermentation occurred at pH=6.0 of the medium and at 38° C. (standard conditions of alcohol fermentation pH 4.5-5.5; temperature 28-34° C.).

Setting [1] is: system with leucine as amino acid.

Consider `N` [ammonium ions], for which the “effect on formation of C3-C5 alcohols” value is listed as “inhibits formation of C3-C5 alcohols”. As for `N.N.O=S(=O)(O)O` [ammonium sulphate], the inhibition constant under setting [1] came out at 750 mg/L. As for `NC(=O)C[C@H](N)C(=O)O` [asparagine], the “effect on formation of C3-C5 alcohols” value is “inhibits formation of C3-C5 alcohols”. In addition, the inhibition constant under setting [1] amounted to 730 mg/L. Moreover, the inhibition constant (system with valine as amino acid) was found to be 650 mg/L.

For the origin of these results see patent US20150064763A1, “Method for Producing Hydrocarbons and Oxygen-containing Compounds from Biomass” (SWEDISH BIOFUELS AB, priority 2003, published 2015).
